Test results from the NIST ThermoML archive (doi:10.1021/acs.jced.7b00564).
± gives the expanded uncertainty stated by the source.

Test: xn = mol fraction of the nth substance listed
Settings: Gas, isochoric method

C=C(F)C(F)(F)F [2,3,3,3-tetrafluoro-1-propene] + CC(C)C
Settings | specific volume [m3/kg]
303.15 K, 163.5 kPa, x2 = 0.472 | 0.1698 ± 0.0015
303.15 K, 180.2 kPa, x2 = 0.606 | 0.1663 ± 0.001
303.15 K, 246.7 kPa, x2 = 0.234 | 0.0939 ± 0.0014
303.15 K, 260.6 kPa, x2 = 0.772 | 0.1279 ± 0.001
303.15 K, 269.3 kPa, x2 = 0.4 | 0.0942 ± 0.0015
308.15 K, 166.4 kPa, x2 = 0.472 | 0.1699 ± 0.0015
308.15 K, 183.3 kPa, x2 = 0.606 | 0.1664 ± 0.001
308.15 K, 251.2 kPa, x2 = 0.234 | 0.094 ± 0.0022
308.15 K, 265.4 kPa, x2 = 0.772 | 0.1279 ± 0.001
308.15 K, 274.3 kPa, x2 = 0.4 | 0.0942 ± 0.0015
308.15 K, 426.8 kPa, x2 = 0.85 | 0.0797 ± 0.001
313.15 K, 169.2 kPa, x2 = 0.472 | 0.1699 ± 0.0015
313.15 K, 186.5 kPa, x2 = 0.606 | 0.1664 ± 0.001
313.15 K, 255.6 kPa, x2 = 0.234 | 0.094 ± 0.0022
313.15 K, 270.2 kPa, x2 = 0.772 | 0.1279 ± 0.001
313.15 K, 279.2 kPa, x2 = 0.4 | 0.0943 ± 0.0015
313.15 K, 435.6 kPa, x2 = 0.85 | 0.0797 ± 0.001
318.15 K, 172.1 kPa, x2 = 0.472 | 0.17 ± 0.0014
318.15 K, 189.7 kPa, x2 = 0.606 | 0.1665 ± 0.0009
318.15 K, 260.1 kPa, x2 = 0.234 | 0.094 ± 0.0022
318.15 K, 275.1 kPa, x2 = 0.772 | 0.1279 ± 0.0009
318.15 K, 284.2 kPa, x2 = 0.4 | 0.0943 ± 0.0014
318.15 K, 444.2 kPa, x2 = 0.85 | 0.0797 ± 0.001
323.15 K, 174.7 kPa, x2 = 0.472 | 0.17 ± 0.0014
323.15 K, 192.9 kPa, x2 = 0.606 | 0.1665 ± 0.0009
323.15 K, 264.6 kPa, x2 = 0.234 | 0.094 ± 0.0009
323.15 K, 279.9 kPa, x2 = 0.772 | 0.128 ± 0.0009
323.15 K, 289.2 kPa, x2 = 0.4 | 0.0943 ± 0.0014
323.15 K, 452.8 kPa, x2 = 0.85 | 0.0797 ± 0.0009
328.15 K, 177.5 kPa, x2 = 0.472 | 0.17 ± 0.0014
328.15 K, 196 kPa, x2 = 0.606 | 0.1665 ± 0.0009
328.15 K, 269 kPa, x2 = 0.234 | 0.094 ± 0.0009
328.15 K, 284.6 kPa, x2 = 0.772 | 0.128 ± 0.0009
328.15 K, 294.1 kPa, x2 = 0.4 | 0.0943 ± 0.0014
328.15 K, 461.2 kPa, x2 = 0.85 | 0.0797 ± 0.0009
333.15 K, 180.3 kPa, x2 = 0.472 | 0.1701 ± 0.0014
333.15 K, 199.2 kPa, x2 = 0.606 | 0.1666 ± 0.0009
333.15 K, 273.4 kPa, x2 = 0.234 | 0.0941 ± 0.0029
333.15 K, 289.4 kPa, x2 = 0.772 | 0.128 ± 0.0009
333.15 K, 299 kPa, x2 = 0.4 | 0.0944 ± 0.0014
333.15 K, 469.7 kPa, x2 = 0.85 | 0.0798 ± 0.0009
338.15 K, 183.1 kPa, x2 = 0.472 | 0.1701 ± 0.0014
338.15 K, 202.3 kPa, x2 = 0.606 | 0.1666 ± 0.0009
338.15 K, 277.8 kPa, x2 = 0.234 | 0.0941 ± 0.0015
338.15 K, 294.2 kPa, x2 = 0.772 | 0.1281 ± 0.0009
338.15 K, 303.9 kPa, x2 = 0.4 | 0.0944 ± 0.0014
338.15 K, 477.9 kPa, x2 = 0.85 | 0.0798 ± 0.0009
343.15 K, 185.9 kPa, x2 = 0.472 | 0.1701 ± 0.0013
343.15 K, 205.5 kPa, x2 = 0.606 | 0.1666 ± 0.0009
343.15 K, 282.2 kPa, x2 = 0.234 | 0.0941 ± 0.0015
343.15 K, 298.9 kPa, x2 = 0.772 | 0.1281 ± 0.0009
343.15 K, 308.8 kPa, x2 = 0.4 | 0.0944 ± 0.0013
343.15 K, 486.3 kPa, x2 = 0.85 | 0.0798 ± 0.0009
348.15 K, 188.7 kPa, x2 = 0.472 | 0.1702 ± 0.0013
348.15 K, 208.6 kPa, x2 = 0.606 | 0.1667 ± 0.0009
348.15 K, 286.6 kPa, x2 = 0.234 | 0.0941 ± 0.0015
348.15 K, 303.6 kPa, x2 = 0.772 | 0.1281 ± 0.0009
348.15 K, 313.5 kPa, x2 = 0.4 | 0.0944 ± 0.0013
348.15 K, 494.6 kPa, x2 = 0.85 | 0.0798 ± 0.0008
353.15 K, 191.5 kPa, x2 = 0.472 | 0.1702 ± 0.0013
353.15 K, 211.8 kPa, x2 = 0.606 | 0.1667 ± 0.0009
353.15 K, 291 kPa, x2 = 0.234 | 0.0941 ± 0.0015
353.15 K, 308.1 kPa, x2 = 0.772 | 0.1281 ± 0.0009
353.15 K, 318.3 kPa, x2 = 0.4 | 0.0944 ± 0.0013
353.15 K, 502.9 kPa, x2 = 0.85 | 0.0798 ± 0.0008
358.15 K, 194.3 kPa, x2 = 0.472 | 0.1703 ± 0.0013
358.15 K, 214.9 kPa, x2 = 0.606 | 0.1667 ± 0.0009
358.15 K, 295.4 kPa, x2 = 0.234 | 0.0942 ± 0.0013
358.15 K, 312.6 kPa, x2 = 0.772 | 0.1282 ± 0.0009
358.15 K, 323.2 kPa, x2 = 0.4 | 0.0945 ± 0.0013
358.15 K, 511.2 kPa, x2 = 0.85 | 0.0798 ± 0.0008
363.15 K, 197.1 kPa, x2 = 0.472 | 0.1703 ± 0.0013
363.15 K, 218 kPa, x2 = 0.606 | 0.1668 ± 0.0009
363.15 K, 299.8 kPa, x2 = 0.234 | 0.0942 ± 0.0013
363.15 K, 328.1 kPa, x2 = 0.4 | 0.0945 ± 0.0013
363.15 K, 519.5 kPa, x2 = 0.85 | 0.0799 ± 0.0008
368.15 K, 200.1 kPa, x2 = 0.472 | 0.1703 ± 0.0013
368.15 K, 221.1 kPa, x2 = 0.606 | 0.1668 ± 0.0009
368.15 K, 304.1 kPa, x2 = 0.234 | 0.0942 ± 0.0013
368.15 K, 332.9 kPa, x2 = 0.4 | 0.0945 ± 0.0013
368.15 K, 527.7 kPa, x2 = 0.85 | 0.0799 ± 0.0008
373.15 K, 202.9 kPa, x2 = 0.472 | 0.1704 ± 0.0012
373.15 K, 224.3 kPa, x2 = 0.606 | 0.1669 ± 0.0009
373.15 K, 308.5 kPa, x2 = 0.234 | 0.0942 ± 0.0013
373.15 K, 337.7 kPa, x2 = 0.4 | 0.0945 ± 0.0012
373.15 K, 535.9 kPa, x2 = 0.85 | 0.0799 ± 0.0008
378.15 K, 205.7 kPa, x2 = 0.472 | 0.1704 ± 0.0012
378.15 K, 227.5 kPa, x2 = 0.606 | 0.1669 ± 0.0008
378.15 K, 313 kPa, x2 = 0.234 | 0.0942 ± 0.0012
378.15 K, 342.6 kPa, x2 = 0.4 | 0.0945 ± 0.0012
378.15 K, 544.1 kPa, x2 = 0.85 | 0.0799 ± 0.0008
383.15 K, 208.5 kPa, x2 = 0.472 | 0.1704 ± 0.0012
383.15 K, 230.6 kPa, x2 = 0.606 | 0.1669 ± 0.0008
383.15 K, 317.4 kPa, x2 = 0.234 | 0.0943 ± 0.0012
383.15 K, 347.4 kPa, x2 = 0.4 | 0.0946 ± 0.0012
383.15 K, 552.4 kPa, x2 = 0.85 | 0.0799 ± 0.0008
